{"source": "patent US12263152B2", "about": "“Method of preventing and treating chemotherapy-induced alopecia” (JJR&D, LLC, priority 2022, dated 2025)", "origin": "cited, not measured here", "key": {"CIA [1]": {"system": "CIA", "conditions": "studies on humans"}, "CIA [2]": {"system": "CIA", "conditions": "neonatal rat model"}, "[3]": {"system": "most commonly used alopecic chemotherapies", "conditions": "topical pretreatment, rats"}, "[4]": {"system": "cyclophosphamide-induced alopecia", "conditions": "animal studies"}}, "note": "Like-named read-outs stand apart in the source and are kept apart here.", "data": [{"molecule": "Cl[TeH]1(Cl)(Cl)OCCO1", "note": "[AS101]", "values": [{"measurement": "Protective role against CIA", "setting": "CIA [1]", "result": "protective role"}, {"measurement": "Protective role against CIA", "setting": "CIA [2]", "result": "protective role"}]}, {"molecule": "C=C1/C(=C\\C=C2/CCC[C@]3(C)[C@@H]([C@H](C)CCCC(C)(C)O)CC[C@@H]23)C[C@@H](O)C[C@@H]1O", "note": "[Calcitriol, 1,25-(OH)2D3]", "values": [{"measurement": "Protection from the most commonly used alopecic chemotherapies", "setting": "[3]", "result": "protected"}, {"measurement": "Patients with alopecia of <50% from baseline", "setting": "alopecia; Week 7, of 23 female patients, topical 5-80 μg/mL twice daily", "result": 8, "unit": "patients"}, {"measurement": "Patients with <50% alopecia maintained", "setting": "alopecia; Week 15, of 23 female patients, topical 5-80 μg/mL twice daily", "result": 2, "unit": "patients"}, {"measurement": "Maximum tolerated dose", "setting": "alopecia; topical drug product, dose escalation up to 80 μg/mL twice daily", "result": "not reached"}]}, {"molecule": "epidermal growth factor", "values": [{"measurement": "Protection from cyclophosphamide (CTX)-induced alopecia", "setting": "[4]", "result": "lack of protection"}]}, {"molecule": "recombinant interleukin 1 β: recombinant interleukin 1 β", "values": [{"measurement": "Protection from cyclophosphamide (CTX)-induced alopecia", "setting": "[4]", "result": "lack of protection"}]}]}
